From patent publication US8399380B2, “Herbicidal composition” (Sumitomo Chemical Company, Limited, priority 2007, dated 2013)

Assays:
Type in all cases: in vivo
Set-up in all cases: key: 0: there is no or little difference in the degree of growth between treated plants and untreated plants at the time of observation; 1: evaluated at 6 levels using the indices of 0 to 5; 2: evaluated at 6 levels using the indices of 0 to 5; 3: evaluated at 6 levels using the indices of 0 to 5; The herbicidal values of “4” and “5” show excellent herbicidal activity; 5: the test plants die completely or their growth is completely inhibited
Alopecurus myosuroides = test: Test Example 1, soil application, pot test in greenhouse; settings: 34 days after application
Excerpt: (§1) The herbicidal values of “4” and “5” show excellent herbicidal activity. Each of plastic pots (measuring 22 cm in diameter and 19 cm in height) was filled with upland field soil and sown with Lolium multiflorum and Alopecurus myosuroides. Each of the predetermined amounts of a flumioxazin formulation product (trade name: Valor_SX, manufactured by Valent USA Corporation), a sulfosulfuron formulation product (trade name: Monitor, manufactured by Monsanto Company) and a mixture of the flumioxazin formulation product and the sulfosulfuron formulation product was diluted with water, and then the dilution was uniformly sprayed over the soil surface by a small-sized sprayer. After the treatment, the weeds were grown in a greenhouse, and the herbicidal activity against the weeds was evaluated at 34 days after application.

Lolium multiflorum = test: as above; settings: 34 days after application
Excerpt: as §1

Solidago altissima = test: Test Example 2, foliar application, pot test in greenhouse; settings: 29 days after treatment
Excerpt: The herbicidal values of “4” and “5” show excellent herbicidal activity. Each of plastic pots (measuring 12 cm in diameter and 8 cm in height) was filled with upland field soil and Solidago altissima collected from outdoors was transplanted to the plastic pot and grown in a greenhouse for 31 days. Each of the predetermined amounts of a flumioxazin formulation product (trade name: Valor_SX, manufactured by Valent USA Corporation), a sulfosulfuron formulation product (trade name: Monitor, manufactured by Monsanto Company) and a mixture of the flumioxazin formulation product and the sulfosulfuron formulation product was diluted with water, and then the dilution was uniformly sprayed over each plant body from above by a small-sized sprayer. After the treatment, the weeds were grown in a greenhouse for 29 days, and then the herbicidal activity against the weeds was evaluated.

SMILES	Herbicidal activity Alopecurus myosuroides (Alopecurus myosuroides; active ingredient 10 g/ha)	Herbicidal activity Alopecurus myosuroides (Alopecurus myosuroides; active ingredient 20 g/ha)	Herbicidal activity Lolium multiflorum (Lolium multiflorum; active ingredient 10 g/ha)	Herbicidal activity Lolium multiflorum (Lolium multiflorum; active ingredient 20 g/ha)	Herbicidal activity Solidago altissima (Solidago altissima; active ingredient 60 g/ha)	Herbicidal activity Solidago altissima (Solidago altissima; active ingredient 120 g/ha)	Herbicidal activity Alopecurus myosuroides (Alopecurus myosuroides; active ingredient 40 g/ha)	Herbicidal activity Lolium multiflorum (Lolium multiflorum; active ingredient 40 g/ha)	Herbicidal activity Solidago altissima (Solidago altissima; active ingredient 40 g/ha)
C#CCN1C(=O)COc2cc(F)c(N3C(=O)C4=C(CCCC4)C3=O)cc21 [Flumioxazin, N-(7-fluoro-3,4-dihydro-3-oxo-4-prop-2-ynyl-2H-1,4-benzeoxazin-6-yl)cyclohex-1-ene-1,2-dicarboxamide]	1	4	0	1	0	1			
CCS(=O)(=O)c1nc2ccccn2c1S(=O)(=O)NC(=O)Nc1nc(OC)cc(OC)n1 [Sulfosulfuron, 1-(4,6-dimethoxypyrimidin-2-yl)-3-(2-ethylsulfonylimidazo[1,2-a]pyridin-3-ylsulfonyl)urea]		0		0			2	0	2
